Measured values published in patent publication US9511073B2, “Aromatic amides and uses thereof” (TAXIS Pharmaceuticals, Inc., priority 2011, dated 2016).
In brackets after ≈: the same amount, converted by molar mass. Read-outs that look alike come from different tables or passages of the source.

Assays:
[1] = tested on: Staphylococcus aureus (Isolate ID ATCC 29213); test: Bacterial assay: MIC by broth microdilution or agar dilution (CLSI), S. aureus ATCC 29213; assay type: cell-based; conditions: Staphylococcus aureus
Outline: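 Activity is binned (A ≤0.25 μg/mL; B >0.25–1.0; C >1.0–16; D >16 μg/mL) from MICs determined per CLSI by broth microdilution or agar dilution, on S. aureus ATCC 29213 plus an FtsZ-G196A mutant strain.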

[2] = tested on: FtsZ-G196A Staphylococcus aureus (Isolate ID GG/190723/sa/1.2); test: Bacterial assay: MIC, FtsZ G196A mutant strain; assay type: cell-based
Procedure: (§1) Compounds are tested for antimicrobial activity by susceptibility testing in liquid or on solid media. Minimum inhibitory concentrations (MICs) for compounds against each strain are determined by the broth microdilution or agar dilution method according to the guidelines of the Clinical Laboratories and Standards Institute, formerly the National Committee for Clinical Laboratory Standards (Clinical Laboratories and Standards Institute. Methods for Dilution Antimicrobial Susceptibility Tests for Bacteria That Grow Aerobically; Approved Standard—Seventh Edition. Document M7-A7. CLSI, Wayne, Pa., 2006; Clinical Laboratories and Standards Institute). The bacterial strains tested include S. aureus (Staphylococcus aureus (Isolate ID ATCC 29213)) and an FtsZ mutant of this isolate (FtsZ-G196A Staphylococcus aureus (Isolate ID GG/190723/sa/1.2)). Compound MICs were determined to be in the following activity ranges “A” activity≦0.25 μg/mL; “B” activity>0.25 μg/mL-1.0 μg/mL; “C” activity>1.0 μg/mL-16 μg/mL; “D” activity>16 μg/mL and ND=not determined. The bracketed entries indicate entantiomer(s) and their activity.
The comparative activity of selected compounds having a bromo-substituted oxazole against their corresponding non-brominated analogues is shown in Table 4.

[3] = Pharmacokinetic assay: plasma concentration by LC/MS/MS after single intravenous or peroral dose of 3 mg/kg; assay type: in vivo; conditions: 3 mg/kg IV dosing in mice
Procedure: The pharmacokinetic profiles of selected comparator compounds A-N in Table 6 and compounds of the invention were determined by measuring the compound concentration in plasma by LC/MS/MS following a single intravenous or peroral administration of the compounds at a dose of 3 mg/kg. The concentrations described are the mean plasma concentrations at each time point from three animals. Intravenous dose formulation was administered as a single bolus dose through the tail vein. Oral dose formulation was administered to animals by an oral gavage needle. In both cases the dose volume was 5.0 mL/kg. Blood was collected from anesthetized mice through a capillary guided into the retro-orbital plexus. The collected blood was centrifuged to obtain plasma and the compounds extracted into methanol prior to determining the compound concentration by LC/MS/MS. The results are shown graphically in FIG. 1 and for the AUC and CL parameters in Table 6.

[4] = tested on: S. aureus ATCC 43300 (MRSA); test: microbe, parasite or virus in culture; assay type: cell-based; conditions: Staphylococcus aureus; S. aureus ATCC 43300 (MRSA); read-out: MIC
Procedure: as §1
(§2) Selected compounds were also tested against a panel of target strains and their MICs are shown in Table 3 against the gold standard Linezolid. […] The activity of the compounds observed against S. aureus was also shown to be maintained within a narrow range across the staphylococcal panel tested.

[5] = tested on: S. aureus ATCC BAA-44 (MDRSA); test: microbe, parasite or virus in culture; assay type: cell-based; conditions: Staphylococcus aureus, ATCCBAA44; S. aureus ATCC BAA-44 (MDRSA); read-out: MIC
Procedure: as §1, §2

[6] = tested on: S. lugdunensis ATCC 43809; test: MIC, staphylococcal panel; assay type: cell-based; conditions: Staphylococcus lugdunensis, ATCC43809; S. lugdunensis ATCC 43809; read-out: MIC
Procedure: as §1, §2

[7] = tested on: S. aureus ATCC 19636 (Smith); test: MIC, staphylococcal panel; assay type: cell-based; conditions: Staphylococcus aureus, ATCC19636; S. aureus ATCC 19636 (Smith); read-out: MIC
Procedure: as §1, §2

S. warneri ATCC 49454 = test: MIC, staphylococcal panel; assay type: cell-based; conditions: Staphylococcus warneri, ATCC49454; S. warneri ATCC 49454; read-out: MIC
Procedure: as §1, §2

[8] = tested on: S. epidermidis ATCC 12228; test: MIC, staphylococcal panel; assay type: cell-based; conditions: Staphylococcus epidermidis, ATCC12228; S. epidermidis ATCC 12228; read-out: MIC
Procedure: as §1, §2

[9] = tested on: S. saprophyticus ATCC 43809; test: MIC, staphylococcal panel; assay type: cell-based; conditions: Staphylococcus saprophyticus, ATCC43809; S. saprophyticus ATCC 43809; read-out: MIC
Procedure: as §1, §2

S. hominis ATCC 27844 = test: MIC, staphylococcal panel; assay type: cell-based; conditions: Staphylococcus hominis, ATCC27844; S. hominis ATCC 27844; read-out: MIC
Procedure: as §1, §2

[10] = tested on: S. haemolyticus ATCC 29970; test: MIC, staphylococcal panel; assay type: cell-based; conditions: Staphylococcus haemolyticus, ATCC29970; S. haemolyticus ATCC 29970; read-out: MIC
Procedure: as §1, §2

[11] = ATCC29213, read-out: S. aureus MIC (μg/mL) Activity Range, S. aureus (ATCC29213)
[12] = read-out: MIC (μg/mL) FtsZ G196A mutant strain
[13] = ATCC29213, read-out: MIC (μg/mL) S. aureus (ATCC29213), Table 5, racemate and enantiomers
[14] = read-out: MIC (μg/mL) G196A mutant strain

Structure (SMILES) | MIC [1, 11] [µg/mL] | MIC [2, 12] [µg/mL] | MIC [1, 13] [µg/mL] | MIC [2, 14] [µg/mL] | AUC [3] [µg·h/mL] | further results
NC(=O)c1c(F)ccc(OC(CNC(=O)c2ccccc2)c2nc(-c3ccc(C(F)(F)F)cc3)c(Br)o2)c1F (stereo not shown) [Compound 292, 3-(2-benzamido-1-(5-bromo-4-(4-(trifluoromethyl)phenyl)oxazol-2-yl)ethoxy)-2,6-difluorobenzamide] | < 0.25 | 1 (≈ 1.64 µM) |  |  |  | 
COC(=O)NCC(Oc1ccc(F)c(C(N)=O)c1F)c1nc(-c2ccc(C(F)(F)F)cc2)co1 (stereo not shown) [Compound 287, methyl (2-(3-carbamoyl-2,4-difluorophenoxy)-2-(4-(4-(trifluoromethyl)phenyl)oxazol-2-yl)ethyl)carbamate] | > 16 | > 256 |  |  |  | 
COc1ccc(-c2nc([C@H](C)Oc3ccc(F)c(C(N)=O)c3F)oc2Br)cc1 [Compound 5A] | 1 to 16 (≈ 2.21 to 35.3 µM) |  | 16 (≈ 35.3 µM) | > 256 |  | 
C[C@@H](Oc1ccc(F)c(C(N)=O)c1F)c1nc(-c2ccc(C(F)(F)F)cc2)co1 [Compound 183, (R)-2,6-difluoro-3-(1-(4-(4-(trifluoromethyl)phenyl)oxazol-2-yl)ethoxy)benzamide] | 1 to 16 (≈ 2.43 to 38.8 µM) | > 256 |  |  |  | 
C[C@@H](Oc1ccc(F)c(C(N)=O)c1F)c1nc(-c2ccc(C(F)(F)F)cc2)c(Br)o1 [Compound 184, (R)-3-(1-(5-bromo-4-(4-(trifluoromethyl)phenyl)oxazol-2-yl)ethoxy)-2,6-difluorobenzamide] | < 0.25 | 0.5 (≈ 1.02 µM) |  |  |  | 
CC(Oc1ccc(F)c(C(N)=O)c1F)c1nc(-c2ccc(OC(F)(F)F)cc2)c(Cl)o1 (stereo not shown) [Compound 21, 3-(1-(5-chloro-4-(4-(trifluoromethoxy)phenyl)oxazol-2-yl)ethoxy)-2,6-difluorobenzamide] | < 0.25 |  |  |  | 1.6 | CL [3]: 31 mL/min/kg
NC(=O)c1c(F)ccc(O[C@@H](CO)c2nc(-c3ccc(F)cc3F)c(Br)o2)c1F [Compound 233A, (S)-3-(1-(5-bromo-4-(2,4-difluorophenyl)oxazol-2-yl)-2-hydroxyethoxy)-2,6-difluorobenzamide] | > 16 |  | 32 (≈ 67.3 µM) | > 256 |  | 
NC(=O)c1c(F)ccc(OC(CNC(=O)c2ccccc2)c2nc(-c3ccc(C(F)(F)F)cc3)co2)c1F (stereo not shown) [Compound 289, 3-(2-benzamido-1-(4-(4-(trifluoromethyl)phenyl)oxazol-2-yl)ethoxy)-2,6-difluorobenzamide] | 1 to 16 (≈ 1.88 to 30.1 µM) | > 256 |  |  |  | 
NC(=O)c1c(F)ccc(O[C@H](CO)c2nc(-c3ccc(F)cc3F)c(Br)o2)c1F [Compound 233B, (R)-3-(1-(5-bromo-4-(2,4-difluorophenyl)oxazol-2-yl)-2-hydroxyethoxy)-2,6-difluorobenzamide] | < 0.25 |  | 0.25 (≈ 0.526 µM) | 8 (≈ 16.8 µM) |  | 
NC(=O)c1c(F)ccc(O[C@H](COC(=O)CCC(=O)O)c2nc(-c3ccc(C(F)(F)F)cc3)c(Br)o2)c1F [Compound 181, (R)-4-(2-(5-bromo-4-(4-(trifluoromethyl)phenyl)oxazol-2-yl)-2-(3-carbamoyl-2,4-difluorophenoxy)ethoxy)-4-oxobutanoic acid] | 1 to 16 (≈ 1.65 to 26.3 µM) |  |  |  |  | clearance ([3]; mouse, plasma): 16 mL/min/kg; AUC ([3]; mouse, plasma, read-out: AUC): 3 µg·h/mL
COC(=O)NCC(Oc1ccc(F)c(C(N)=O)c1F)c1nc(-c2ccc(C(F)(F)F)cc2)c(Br)o1 (stereo not shown) [Compound 288, methyl (2-(5-bromo-4-(4-(trifluoromethyl)phenyl)oxazol-2-yl)-2-(3-carbamoyl-2,4-difluorophenoxy)ethyl)carbamate] | 0.25 to 1 (≈ 0.443 to 1.77 µM) | 16 (≈ 28.4 µM) |  |  |  | 
COc1ccc(-c2nc([C@@H](C)Oc3ccc(F)c(C(N)=O)c3F)oc2Br)cc1 [Compound 5B] | 0.25 to 1 (≈ 0.552 to 2.21 µM) | 16 (≈ 35.3 µM) | 0.5 (≈ 1.1 µM) | 16 (≈ 35.3 µM) |  | 
NC(=O)c1c(F)ccc(OC(CO)c2nc(-c3ccc(C(F)(F)F)cc3)c(Br)o2)c1F (racemic) [Compound 38, 3-(1-(5-bromo-4-(4-(trifluoromethyl)phenyl)oxazol-2-yl)-2-hydroxyethoxy)-2,6-difluorobenzamide] | < 0.25 |  | 0.25 (≈ 0.493 µM) | 4 (≈ 7.89 µM) | 6.7 | clearance ([3]; mouse, plasma): 7 mL/min/kg
NC(=O)c1c(F)ccc(O[C@@H](CO)c2nc(-c3ccc(C(F)(F)F)cc3)c(Br)o2)c1F (single isomer, unassigned) [Compound 38A] | 1 to 16 (≈ 1.97 to 31.5 µM) |  | 16 (≈ 31.5 µM) | 64 (≈ 126 µM) |  | clearance ([3]; mouse, plasma): 6 mL/min/kg; AUC ([3]; mouse, plasma, read-out: AUC): 7.8 µg·h/mL
COc1ccc(-c2coc([C@@H](C)Oc3ccc(F)c(C(N)=O)c3F)n2)cc1 [Compound 268B] | 1 to 16 (≈ 2.67 to 42.7 µM) | > 256 |  |  |  | 
CC(=O)NC[C@H]1CN(c2ccc(N3CCOCC3)c(F)c2)C(=O)O1 [Linezolid, reference compound] |  |  |  |  |  | MIC [4]: 2 µg/mL (≈ 5.93 µM); MIC [5]: 1 µg/mL (≈ 2.96 µM); MIC ([1]; ATCC29213, Staphylococcus aureus ATCC 29213, Table 3 panel, read-out: MIC): 2 µg/mL (≈ 5.93 µM); MIC [6]: 1 µg/mL (≈ 2.96 µM); MIC [7]: 2 µg/mL (≈ 5.93 µM); MIC (S. warneri ATCC 49454): 2 µg/mL (≈ 5.93 µM); MIC [8]: 1 µg/mL (≈ 2.96 µM); MIC [9]: 2 µg/mL (≈ 5.93 µM); MIC (S. hominis ATCC 27844): 1 µg/mL (≈ 2.96 µM); MIC [10]: 1 µg/mL (≈ 2.96 µM)
CC(Oc1ccc(F)c(C(N)=O)c1F)c1nc(-c2ccc(OC(F)(F)F)cc2)c(Br)o1 (stereo not shown) [Compound 16, 3-(1-(5-bromo-4-(4-(trifluoromethoxy)phenyl)oxazol-2-yl)ethoxy)-2,6-difluorobenzamide] | 0.25 to 1 (≈ 0.493 to 1.97 µM) |  |  |  | 1.4 | CL [3]: 36 mL/min/kg
CC(Oc1ccc(F)c(C(N)=O)c1F)c1nc(-c2ccc(C(F)(F)F)cc2)c(Br)o1 (stereo not shown) [Compound 27, 3-(1-(5-bromo-4-(4-(trifluoromethyl)phenyl)oxazol-2-yl)ethoxy)-2,6-difluorobenzamide] | < 0.25 |  |  |  | 2.2 | CL [3]: 22 mL/min/kg
COc1ccc(-c2nc(C(C)Oc3ccc(F)c(C(N)=O)c3F)oc2Br)cc1 (racemic) [Compound 5] | 0.25 to 1 (≈ 0.552 to 2.21 µM) |  | 1 (≈ 2.21 µM) | 32 (≈ 70.6 µM) |  | 
COc1ccc(-c2nc(COc3ccc(F)c(C(N)=O)c3F)sc2-c2ccc(N(C)C)nc2)cc1 [D, 3-((5-(6-(dimethylamino)pyridin-3-yl)-4-(4-methoxyphenyl)thiazol-2-yl)methoxy)-2,6-difluorobenzamide] |  |  |  |  |  | clearance ([3]; mouse, plasma): 55 mL/min/kg; AUC ([3]; mouse, plasma, read-out: AUC): 0.9 µg·h/mL
CCCc1oc(COc2ccc(F)c(C(N)=O)c2F)nc1-c1ccc(Cl)cc1 [K] |  |  |  |  | 0.4 | CL [3]: 137 mL/min/kg
CCc1oc(COc2ccc(F)c(C(N)=O)c2F)nc1-c1ccc(OC)cc1 [I, 3-((5-ethyl-4-(4-methoxyphenyl)oxazol-2-yl)methoxy)-2,6-difluorobenzamide] |  |  |  |  | 0.2 | CL [3]: 319 mL/min/kg
NC(=O)c1c(F)ccc(OCc2nc3cc(-c4ccccc4)cnc3s2)c1F [B] |  |  |  |  | 0.5 | CL [3]: 91 mL/min/kg
